Laboratory results: patent EP3722296B1, “DIHYDRONAPHTHYRIDINES AND RELATED COMPOUNDS USEFUL AS KINASE INHIBITORS FOR THE TREATMENT OF PROLIFERATIVE DISEASES” (Deciphera Pharmaceuticals, LLC, priority 2012, dated 2013)

Assays:
c-KIT kinase = c-KIT kinase (Homo sapiens, UniProt P10721); assay: c-KIT kinase Assay; type: biochemical; set-up: cKIT residues T544-V976; GST (N); TEV cleavage site (internal); purchased deCODE Biostructures; details: enzymatic assay, ATP 200 µM; read-out: KIT (wt) IC50
Description: In this assay, the oxidation of NADH (measured by decrease in absorbance at 340 nm) was continuously monitored spectrophotometrically. […] The absorption at 340 nm was monitored continuously for 2 hours at 30 °C on Synergy 2 (BioTeK). The reaction rate was calculated using the 0 to 1 h time frame. Percent inhibition was obtained by comparison of reaction rate with that of a control (i.e. with no test compound). IC50 values were calculated from a series of percent inhibition values determined at a range of inhibitor concentrations using software routines as implemented in the GraphPad Prism software package. The protein construct was prepared by deCODE Biostructures using procedures known in the art. The construct contains […] of cKit, an N-terminal tag, a GST-fusion sequence and a TEV cleavage site. [formula]

c-KIT D816V kinase = target: T1, c-KIT D816V kinase (Homo sapiens, UniProt P10721, D816V); assay: c-KIT D816V kinase Assay; type: biochemical; details: enzymatic assay, ATP 200 uM
T1 construct: residues T544-V976 with N-terminal GST fusion; purchased deCODE Biostructures
T1 sequence (P10721 544-976 D816V): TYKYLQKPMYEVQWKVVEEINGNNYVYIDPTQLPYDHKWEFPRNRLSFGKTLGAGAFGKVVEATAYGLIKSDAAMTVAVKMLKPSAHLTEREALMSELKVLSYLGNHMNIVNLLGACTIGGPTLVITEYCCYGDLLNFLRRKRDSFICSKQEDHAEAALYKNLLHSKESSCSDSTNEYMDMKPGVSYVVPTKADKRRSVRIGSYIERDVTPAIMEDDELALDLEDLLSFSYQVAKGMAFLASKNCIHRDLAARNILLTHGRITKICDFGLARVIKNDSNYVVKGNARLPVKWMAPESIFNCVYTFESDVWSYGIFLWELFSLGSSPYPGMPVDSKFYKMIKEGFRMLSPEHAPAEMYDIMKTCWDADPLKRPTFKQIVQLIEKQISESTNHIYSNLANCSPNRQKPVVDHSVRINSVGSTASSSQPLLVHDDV
Description: (§1) In this assay, the oxidation of NADH (measured by decrease in absorbance at 340 nm) was continuously monitored spectrophotometrically. […] The inhibition reaction was started by mixing serial diluted test compound with the above reaction mixture. The absorption at 340 nm was monitored continuously for 5 hours at 30 °C on Synergy 2 plate reader (BioTech).
(§2) The protein construct was prepared by deCODE Biostructures using procedures known in the art. The construct contains residues T544-V976 of cKit, an N-terminal tag, a GST-fusion sequence and a TEV cleavage site. This construct is identical to Seq ID no.

c-KIT V654A kinase = target: T2, c-KIT V654A kinase (Homo sapiens, UniProt P10721, V654A); assay: c-KIT V654A Kinase Assay; type: biochemical; details: enzymatic assay, ATP 200 µM
T2 construct: residues T544-V976 with N-terminal GST fusion; purchased deCODE Biostructures
T2 sequence (P10721 544-976 V654A): as the sequence (P10721 544-976 D816V) above, with V111A, V273D counted along it
Description: as §1, with “6” for “5”
as §2

c-KIT T670I kinase = target: T3, c-KIT T670I kinase (Homo sapiens, UniProt P10721, T670I); assay: c-KIT T670I kinase assay; type: biochemical; details: enzymatic assay
T3 construct: The construct contains residues T544-V976 of cKit; GST (N); TEV cleavage site (internal); purchased deCODE Biostructures
T3 sequence (P10721 544-976 T670I): as the sequence (P10721 544-976 D816V) above, with T127I, V273D counted along it
Description: (§3) In this assay, the oxidation of NADH (measured by decrease in absorbance at 340 nm) was continuously monitored spectrophotometrically. […] The inhibition reaction was started by mixing serial diluted test compound with the above reaction mixture. The absorption at 340 nm was monitored continuously for 5 hours at 30 °C on Synergy 2 plate reader (BioTech). […] The protein construct was prepared by deCODE Biostructures using procedures known in the art. The construct contains […] of cKit, an N-terminal tag, a GST-fusion sequence and a TEV cleavage site. This construct is identical to Seq ID no. 1 except for the T670I mutation. [formula] [formula]

c-KIT D816H kinase = target: T4, c-KIT D816H kinase (Homo sapiens, UniProt P10721, D816H); assay: c-KIT D816H Kinase Assay; type: biochemical; details: enzymatic assay, ATP 200 µM
T4 construct: The construct contains residues T544-V976 of cKit; GST (N); TEV cleavage site (internal); purchased deCODE Biostructures
T4 sequence (P10721 544-976 D816H): as the sequence (P10721 544-976 D816V) above, with V273H counted along it
Description: as §3, with “6” for “5”, “no.” for “no. 1 except for the T670I mutation. [formula] [formula]”

GIST T1 cells = assay: GIST T1 Cell Proliferation Assay; type: cell-based; details: Homo sapiens, GISTT1, 72 h, 68 hours + 4 hours resazurin
Description: GIST48, GIST430, and GIST882 cells were obtained from J. Fletcher (Brigham and Women's Hospital, Boston, MA). GIST T1 cells were obtained from B. Rubin (Cleveland Clinic, Cleveland, OH) and Professor Takahiro Taguchi (Kochi Medical School, Nankoku, Kochi, Japan). Briefly, GIST48 and GIST 882 cells were grown in RPMI 1640 medium supplemented with 15% characterized fetal bovine serum (Invitrogen, Carlsbad, CA), 1 unit/mL penicillin G, 1 µg/ml streptomycin, and 0.29 mg/mL L-glutamine at 37 °C, 5% CO2, and 95% humidity. GIST430 cells were grown in Ham's F10 medium supplemented with 15% characterized fetal bovine serum (Invitrogen, Carlsbad, CA), 30 mg/L bovine pituitary extract (BD Biosciences, San Jose, CA), 0.5% Mito+ serum extender (BD Biosciences, San Jose, CA), 1 unit/mL penicillin G, 1 µg/ml streptomycin, and 0.29 mg/mL L-glutamine at 37 °C, 5%CO2, 95% humidity. GIST T1 cells were grown in DMEM medium supplemented with 10% characterized fetal bovine serum (Invitrogen, Carlsbad, CA), 1 unit/mL penicillin G, 1 µg/ml streptomycin, and 0.29 mg/mL L-glutamine at 37 °C, 5% CO2, and 95% humidity.
A serial dilution of test compound was dispensed into a 384-well black clear bottom plate (Corning, Corning, NY). One thousand two-hundred fifty cells were added per well in 50 µL complete growth medium. Plates were incubated for 68 hours at 37 °C, 5% CO2, 95% humidity. At the end of the incubation period 10 µL of a 440 µM solution of resazurin (Sigma, St. Louis, MO) in PBS was added to each well and incubated for an additional 4 hours at 37 °C, 5% CO2, 95% humidity. Plates were read on a Synergy2 reader (Biotek, Winooski, VT) using an excitation of 540 nm and an emission of 600 nm.

Chain of c-KIT kinase (P10721 544-976): as the sequence (P10721 544-976 D816V) above, with V273D counted along it

IC50 (c-KIT kinase) [nM]	IC50 (c-KIT D816V kinase) [nM]	IC50 (c-KIT V654A kinase) [nM]	IC50 (c-KIT T670I kinase) [nM]	IC50 (c-KIT D816H kinase) [nM]	SMILES	IC50 (GIST T1 cells) [nM]
10 to 100	100 to 1000	100 to 1000	10 to 100	10 to 100	CCn1c(=O)c(-c2cc(NC(=O)Nc3ccc(F)c(CN4CCN(C)CC4)c3)c(F)cc2C)cc2cnc(N)cc21 [Example 93, 1-(5-(7-amino-1-ethyl-2-oxo-1,2-dihydro-1,6-naphthyridin-3-yl)-2-fluoro-4-methylphenyl)-3-(4-fluoro-3-((4-methylpiperazin-1-yl)methyl)phenyl)urea]	10 to 100
< 10	10 to 100	10 to 100	10 to 100	10 to 100	CCn1c(=O)c(-c2cc(NC(=O)Nc3ccccc3)c(F)cc2Cl)cc2cnc(NC(=O)N3CC[C@H](N(C)C)C3)cc21 [Example 96, (S)-N-(3-(2-chloro-4-fluoro-5-(3-phenylureido)phenyl)-1-ethyl-2-oxo-1,2-dihydro-1,6-naphthyridin-7-yl)-3-(dimethylamino)pyrrolidine-1-carboxamide]	< 10
10 to 100	< 10	10 to 100	10 to 100	10 to 100	CC(C)n1c(=O)c(-c2cc(NC(=O)Nc3cccc(F)c3)c(F)cc2Cl)cc2cnc(NC(=O)N(C)C)cc21 [Example 98, 3-(3-(2-chloro-4-fluoro-5-(3-(3-fluorophenyl)ureido)phenyl)-1-isopropyl-2-oxo-1,2-dihydro-1,6-naphthyridin-7-yl)-1,1-dimethylurea]	< 10
10 to 100	100 to 1000	100 to 1000	100 to 1000	100 to 1000	CCn1c(=O)c(-c2cc(NC(=O)Nc3ccc(F)c(CN4CCN(C)CC4)c3)c(F)cc2C)cc2cnc(NC=O)cc21 [Example 100, N-(1-ethyl-3-(4-fluoro-5-(3-(4-fluoro-3-((4-methylpiperazin-1-yl)methyl)phenyl)ureido)-2-methylphenyl)-2-oxo-1,2-dihydro-1,6-naphthyridin-7-yl)formamide]	10 to 100
10 to 100	< 10	10 to 100	10 to 100	10 to 100	CC(C)n1c(=O)c(-c2cc(NC(=O)Nc3ccccc3)c(F)cc2Cl)cc2cnc(NC(=O)N(C)C)cc21 [Example 103, 3-(3-(2-chloro-4-fluoro-5-(3-phenylureido)phenyl)-1-isopropyl-2-oxo-1,2-dihydro-1,6-naphthyridin-7-yl)-1,1-dimethylurea]	10 to 100
10 to 100	10 to 100	100 to 1000	10 to 100	10 to 100	CCn1c(=O)c(-c2cc(NC(=O)Nc3csc4ccccc34)c(F)cc2C)cc2cnc(NC(=O)N(C)C)cc21 [Example 104, 3-(3-(5-(3-(benzo[b]thiophen-3-yl)ureido)-4-fluoro-2-methylphenyl)-1-ethyl-2-oxo-1,2-dihydro-1,6-naphthyridin-7-yl)-1,1-dimethylurea]	10 to 100
10 to 100	10 to 100	10 to 100	10 to 100	10 to 100	CCn1c(=O)c(-c2cc(NC(=O)Nc3ccccc3)c(F)cc2Br)cc2cnc(NC(=O)N(C)C)cc21 [Example 105, 3-(3-(2-bromo-4-fluoro-5-(3-phenylureido)phenyl)-1-ethyl-2-oxo-1,2-dihydro-1,6-naphthyridin-7-yl)-1,1-dimethylurea]	< 10
10 to 100	10 to 100	10 to 100	10 to 100	< 10	CCn1c(=O)c(-c2cc(NC(=O)Nc3cccc(F)c3)c(F)cc2C)cc2cnc(NC(=O)N(C)C)cc21 [Example 106, 3-(1-ethyl-3-(4-fluoro-5-(3-(3-fluorophenyl)ureido)-2-methylphenyl)-2-oxo-1,2-dihydro-1,6-naphthyridin-7-yl)-1,1-dimethylurea]	< 10
